Here are results for 15 compounds from patent publication US10717742B2, “Spiro[3H-indole-3,2′-pyrrolidin]-2(1H)-one compounds and derivatives as MDM2-P53 inhibitors” (Boehringer Ingelheim International GmbH, priority 2015, dated 2020).

Data set [1] concerns the target p53-MDM2 interaction (GST-MDM2 protein aa 23-117 / biotinylated p53 wt peptide) (Homo sapiens (Human), UniProt Q00987). Put plainly: Mdm2-p53 Inhibition AlphaScreen. The class given is binding. As to conditions: GST-MDM2 (aa 23-117) / biotinylated p53 wt peptide.
Data set [2] concerns human acute myeloid leukemia (AML) and human prostate tumor xenograft models harboring p53 wild-type. As to conditions: cited from earlier work.
Data set [3] deals with p53 wild-type vs. p53 mutant cell lines. As to conditions: in vitro, PPTP of the NCI; cited from earlier work.
Data set [4] deals with solid tumor xenograft models. As to conditions: cited from earlier work.
The test system of data set [5] is acute lymphoblastic leukemia (ALL) xenograft models with mixed-lineage leukemia (MLL) rearrangement. As to conditions: cited from earlier work.

Structures are written as SMILES.

Sequence of p53-MDM2 interaction (GST-MDM2 protein aa 23-117 / biotinylated p53 wt peptide) (Q00987 23-117): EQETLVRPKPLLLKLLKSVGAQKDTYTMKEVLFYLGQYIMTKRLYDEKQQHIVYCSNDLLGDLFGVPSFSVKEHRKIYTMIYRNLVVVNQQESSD

As to `CCOc1cccc(CN2[C@H]3Cn4c(nc5cc(C(N)=O)ccc54)[C@H]3[C@H](c3cccc(Cl)c3F)[C@]23C(=O)Nc2cc(Cl)ccc23)c1` [Ib-241], half-maximal inhibition in data set [1] (IC50) was put at 4 nM.

In the case of `CCOc1cccc(CN2[C@H]3Cn4c(nc5cc(C(N)=O)ccc54)[C@H]3[C@H](c3cccc(Cl)c3F)[C@]23C(=O)Nc2cc(Cl)ccc23)c1` [Ib-242], the IC50 in data set [1] worked out at 2 nM.

`CCOc1cccc(CN2[C@@H]3Cn4c(nc5cc(C(N)=O)ccc54)[C@@H]3[C@@H](c3cccc(Cl)c3F)[C@@]23C(=O)Nc2cc(Cl)ccc23)c1` [Ib-243] yielded an IC50 in data set [1] of 99 nM.

For the compound `CCOc1cccc(CN2[C@H]3Cn4c(nc5cc(C(=O)NO)ccc54)[C@H]3[C@H](c3cccc(Cl)c3F)[C@]23C(=O)Nc2cc(Cl)ccc23)c1` [Ib-244], in data set [1], the IC50 came out at 3 nM.

`O=C1Nc2cc(Cl)ccc2[C@@]12[C@@H](c1cccc(Cl)c1F)[C@@H]1c3nc4cc(CO)ccc4n3CC[C@@H]1N2CC1CC1` [Ib-245] had an IC50 in data set [1] of 20 nM.

Compound `Nc1ccc2c(c1)nc1n2CC[C@H]2[C@@H]1[C@H](c1cccc(Cl)c1F)[C@]1(C(=O)Nc3cc(Cl)ccc31)N2CC1CC1` [Ib-247] displayed an IC50 in data set [1] of 27 nM.

Consider `O=C1Nc2cc(Cl)ccc2[C@@]12[C@@H](c1cccc(Cl)c1F)[C@@H]1c3nc4cc(N5CCCCC5)ccc4n3CC[C@@H]1N2CC1CC1` [Ib-249], for which inhibition in data set [1] was half-maximal at 240 nM (IC50).

Compound `O=C1Nc2cc(Cl)ccc2[C@@]12[C@@H](c1cccc(Cl)c1F)[C@@H]1c3nc4ccccc4n3CC[C@@H]1N2CC1CC1` [Ib-253] yielded an IC50 in data set [1] of 72 nM.

For `Cc1c(C(=O)O)ccn2c3c(nc12)[C@@H]1[C@H](C3)N(CC2CC2)[C@@]2(C(=O)Nc3cc(Cl)ccc32)[C@H]1c1ccnc(Cl)c1F` [Ic-23], in data set [1], the half-inhibitory concentration (IC50) worked out at 6 nM.

Regarding `CCOc1cccc(CN2[C@H]3Cc4c(nc5c(C)c(C(=O)O)ccn45)[C@H]3[C@H](c3ccnc(Cl)c3F)[C@]23C(=O)Nc2cc(Cl)ccc23)c1` [Ic-27], the IC50 in data set [1] came to 13 nM.

On to `Cc1c(C(=O)N(C)C)ccn2c3c(nc12)[C@@H]1[C@H](C3)N(CC2CC2)[C@@]2(C(=O)Nc3cc(Cl)ccc32)[C@H]1c1ccnc(Cl)c1F` [Ic-29], for which, in data set [1], the IC50 is 10 nM.

`Cc1c(C(=O)N2CCCCC2)ccn2c3c(nc12)[C@@H]1[C@H](C3)N(CC2CC2)[C@@]2(C(=O)Nc3cc(Cl)ccc32)[C@H]1c1ccnc(Cl)c1F` [Ic-35] had a concentration for half-maximal inhibition (IC50) in data set [1] of 10 nM.

As to `Cc1c(C(=O)N2CCOCC2)ccn2c3c(nc12)[C@@H]1[C@H](C3)N(CC2CC2)[C@@]2(C(=O)Nc3cc(Cl)ccc32)[C@H]1c1ccnc(Cl)c1F` [Ic-37], the IC50 in data set [1] turned out to be 10 nM.

As for `CCOc1cc(C(C)(C)C)ccc1C1=N[C@@](C)(c2ccc(Cl)cc2)[C@@](C)(c2ccc(Cl)cc2)N1C(=O)N1CCN(CCCS(C)(=O)=O)CC1` [RG7112], the “antiproliferative and proapoptotic activity” value in data set [2] is “antiproliferative and proapoptotic activity”.

Regarding `CCOc1cc(C(C)(C)C)ccc1C1=N[C@@](C)(c2ccc(Cl)cc2)[C@@](C)(c2ccc(Cl)cc2)N1C(=O)N1CCN(CCCS(C)(=O)=O)CC1` [RG-7112], the “cytotoxic activity, median IC50” value in data set [3] was “lower median IC50 values for p53 wild-type vs. p53 mutant cell lines”. Also, the tumor growth inhibition entry in data set [4] is reported as “induced tumor growth inhibition”. In addition, in data set [5], the “efficacy in xenograft models” value is given as “particularly efficacious”.
